Assay results as given in ChEMBL document CHEMBL4270506, “Recent advances in drug discovery of phototherapeutic non-porphyrinic anticancer agents” (Eur J Med Chem, 2017).
Blank lines part the entries; values can stand above or below the compound they belong to.

Columns and labels:
[1] = Dark toxicity in human […] cells assessed as cell viability at 10 ug/ml by CCK8 assay; type: cell-based; details: read-out: Activity
[2] = Phototoxicity in human […] cells assessed as cell viability at 10 ug/ml under irradiation at 457 nm at 20 J/cm2 by CCK8 assay; type: functional; details: light or radiation study, read-out: Activity
[3] = Lipophilicity, log P of the compound; type: physicochemical; details: octanol/water
[4] = system: SK-OV-3; assay: Phototoxicity in human SKOV3 cells assessed as reduction in cell viability in presence of irradiation with green lED light at 25.2 J/cm2 for 2 hrs followed by incubation in dark for 24 hrs by MTT assay; type: functional, cell-based; details: SK-OV-3, light or radiation study
[5] = Phototoxicity in human […] cells assessed as cell viability at 5 ug/ml under irradiation at 532 nm by CCK8 assay; type: functional; details: light or radiation study, read-out: Activity
[6] = Dark toxicity in human […] cells assessed as cell viability at 50 ug/ml by CCK8 assay; type: cell-based; details: read-out: Activity
[7] = system: MIA PaCa-2; assay: Phototoxicity in human MIAPaCa2 cells assessed as inhibition of cell growth at 25 uM pre-incubated for 3 hrs before irradiation with 780 nm light for 1 mins and measured after 24 hrs by MTT assay; type: functional; details: MIA PaCa-2, light or radiation study, read-out: GI
[8] = Dark toxicity in human BxPC3 cells assessed as inhibition of cell growth at 6.25 to 25 uM incubated for 24 hrs by MTT assay; type: cell-based, BXPC-3; details: read-out: GI
[9] = Dark toxicity in human MIAPaCa2 cells assessed as inhibition of cell growth at 6.25 to 25 uM incubated for 24 hrs by MTT assay; type: cell-based, MIA PaCa-2; details: read-out: GI
[10] = system: BXPC-3; assay: Phototoxicity in human BxPC3 cells assessed as inhibition of cell growth at 12.5 uM pre-incubated for 3 hrs before irradiation with 780 nm light for 1 mins and measured after 24 hrs by MTT assay; type: functional; details: BXPC-3, light or radiation study, read-out: GI
[11] = system: MIA PaCa-2; assay: Phototoxicity in human MIAPaCa2 cells assessed as inhibition of cell growth at 12.5 uM pre-incubated for 3 hrs before irradiation with 780 nm light for 1 mins and measured after 24 hrs by MTT assay; type: functional; details: MIA PaCa-2, light or radiation study, read-out: GI
[12] = system: MIA PaCa-2; assay: Phototoxicity in human MIAPaCa2 cells assessed as inhibition of cell growth at 6.25 uM pre-incubated for 3 hrs before irradiation with 780 nm light for 1 mins and measured after 24 hrs by MTT assay; type: functional; details: MIA PaCa-2, light or radiation study, read-out: GI
[13] = system: BXPC-3; assay: Phototoxicity in human BxPC3 cells assessed as inhibition of cell growth at 25 uM pre-incubated for 3 hrs before irradiation with 780 nm light for 1 mins and measured after 24 hrs by MTT assay; type: functional; details: BXPC-3, light or radiation study, read-out: GI
[14] = system: BXPC-3; assay: Phototoxicity in human BxPC3 cells assessed as inhibition of cell growth at 6.25 uM pre-incubated for 3 hrs before irradiation with 780 nm light for 1 mins and measured after 24 hrs by MTT assay; type: functional; details: BXPC-3, light or radiation study, read-out: GI
[15] = Phototoxicity in mouse DLA cells assessed as inhibition of cell viability illuminated for 10 mins at total dose of 46 J/cm2 irradiation by trypan blue dye exclusion method; type: functional
[16] = Dark toxicity in mouse DLA cells assessed as inhibition of cell viability by trypan blue dye exclusion method; type: cell-based; details: read-out: INH
[17] = Dark toxicity in human LoVo cells assessed as reduction in cell viability after 72 hrs by MTT assay; type: cell-based
[18] = system: Jurkat; assay: Phototoxicity in human Jurkat cells assessed as cell viability at 2 to 8 umol/L pre-incubated for 30 mins before irradiation at 365 nm at 3.75 J/cm2 and measured after 72 hrs by MTT assay; type: functional; details: light or radiation study
[19] = Dark toxicity in human A431 cells assessed as reduction in cell viability after 72 hrs by MTT assay; type: cell-based, A-431
[20] = Dark toxicity in human K562 cells assessed as reduction in cell viability after 72 hrs by MTT assay; type: cell-based
[21] = Dark toxicity in human Jurkat cells assessed as reduction in cell viability after 72 hrs by MTT assay; type: cell-based
[22] = system: K562; assay: Phototoxicity in human K562 cells assessed as cell viability at 2 to 8 umol/L pre-incubated for 30 mins before irradiation at 365 nm at 3.75 J/cm2 and measured after 72 hrs by MTT assay; type: functional; details: K562, light or radiation study
[23] = system: A-431; assay: Phototoxicity in human A431 cells assessed as cell viability at 2 to 8 umol/L pre-incubated for 30 mins before irradiation at 365 nm at 3.75 J/cm2 and measured after 72 hrs by MTT assay; type: functional; details: A-431, light or radiation study
[24] = system: LoVo; assay: Phototoxicity in human LoVo cells assessed as cell viability at 2 to 8 umol/L pre-incubated for 30 mins before irradiation at 365 nm at 3.75 J/cm2 and measured after 72 hrs by MTT assay; type: functional; details: light or radiation study

logP [3]: 2.32 to 3.04
Structure (SMILES): COCCOCCOCCOCCN(C)c1ccc(/C=C2\CC/C(=C\c3ccc(N(C)CCOCCOCCOCCOC)cc3)C2=O)cc1
viability at 10 ug/ml [1]: > 80% | viability at 10 µg/mL [2]: < 10%

Structure (SMILES): CC1=C(I)C(C)=[N+]2C1=C(c1c(Cl)cccc1Cl)c1c(C)c(I)c(C)n1[B-]2(F)F
EC50 [4]: 0.77 nM

Structure (SMILES): CCN(CC)c1ccc(/C=C2\CC/C(=C\c3ccc(N(CCC(=O)O)CCC(=O)O)cc3)C2=O)cc1
viability at 5 µg/mL [5]: > 80% | viability at 50 ug/ml [6]: > 70%

Structure (SMILES): O=C(O)CCN(CCC(=O)O)c1ccc(/C=C2\CC/C(=C\c3ccc(N(CCC(=O)O)CCC(=O)O)cc3)C2=O)cc1
viability at 5 µg/mL [5]: > 80% | viability at 50 ug/ml [6]: > 70%

Structure (SMILES): CC1(C)C(/C=C/C=C/C=C/C=C2\N(CCCCS(=O)(=O)O)c3ccc4ccccc4c3C2(C)C)=[N+](CCCCS(=O)(=O)[O-])c2ccc3ccccc3c21 [INDOCYANINE GREEN]
inhibition of growth at 25 µM [7]: 0% | inhibition at 24 h, up to 25 µM [8]: 0% | inhibition at 24 h, up to 25 µM [9]: 0% | inhibition of growth at 12.5 µM [10]: 0% | inhibition of growth at 12.5 µM [11]: 0% | inhibition of growth at 6.25 µM [12]: 0% | inhibition of growth at 25 µM [13]: 0% | inhibition of growth at 6.25 µM [14]: 0%

Structure (SMILES): O=C1C(/C=C2/Sc3cc(I)ccc3N2CCCCS(=O)(=O)O)=C([O-])C/1=C\c1sc2cc(I)ccc2[n+]1CCCCS(=O)(=O)O
inhibition (INH) [15]: 95 - 100% | cytotoxicity [16]: < 10%

Structure (SMILES): CC1=C(I)C(C)=[N+]2C1=Cc1c(C)c(I)c(C)n1[B-]2(F)F
EC50 [4]: 28.8 nM

Structure (SMILES): Cn1ccc2c1-c1[nH]c(=O)ncc1CC2
GI50 at 72 h [17]: > 20000 nM | GI50 [18]: > 20000 nM | GI50 at 72 h [19]: > 20000 nM | GI50 at 72 h [20]: > 20000 nM | GI50 at 72 h [21]: > 20000 nM | GI50 [22]: > 20000 nM | GI50 [23]: > 20000 nM | GI50 [24]: > 20000 nM

logP [3]: 2.32 to 3.04
Structure (SMILES): COCCOCCOCCOCCN(CCOCCOCCOCCOC)c1ccc(/C=C2\CC/C(=C\c3ccc(N(CCOCCOCCOCCOC)CCOCCOCCOCCOC)cc3)C2=O)cc1
viability at 10 ug/ml [1]: > 80% | viability at 10 µg/mL [2]: > 60%

Structure (SMILES): CC(C)c1ccc(C2=C([O-])/C(=C\c3sc4cc(I)ccc4[n+]3CCCCS(=O)(=O)O)C2=O)cc1
inhibition (INH) [15]: 80% | cytotoxicity [16]: < 10%

logP [3]: 2.32 to 3.04
Structure (SMILES): COCCOCCOCCN(CCOCCOCCOC)c1ccc(/C=C2\CC/C(=C\c3ccc(N(CCOCCOCCOC)CCOCCOCCOC)cc3)C2=O)cc1
viability at 10 ug/ml [1]: > 80% | viability at 10 µg/mL [2]: 60%

Structure (SMILES): CCN1/C(=C\C2=C([O-])C(=C\c3sc4cc(I)ccc4[n+]3CCCCS(=O)(=O)O)/C2=O)Sc2ccccc21
inhibition (INH) [15]: 95 - 100% | cytotoxicity [16]: < 10%

Structure (SMILES): CN(CCC(=O)O)c1ccc(/C=C2\CC/C(=C\c3ccc(N(C)CCC(=O)O)cc3)C2=O)cc1
viability at 5 µg/mL [5]: > 80% | viability at 50 ug/ml [6]: > 70%

Structure (SMILES): CC1=C(I)C(C)=[N+]2C1=C(c1ccc([N+](=O)[O-])cc1)c1c(C)c(I)c(C)n1[B-]2(F)F
EC50 [4]: 2.01 nM

Structure (SMILES): CC1=C(I)C(C)=[N+]2C1=C(c1ccncc1)c1c(C)c(I)c(C)n1[B-]2(F)F
EC50 [4]: 1.29 nM

logP [3]: 2.32 to 3.04
Structure (SMILES): CCN(CC)c1ccc(/C=C2\CC/C(=C\c3ccc(N(CCOCCOCCOCCOC)CCOCCOCCOCCOC)cc3)C2=O)cc1
viability at 10 ug/ml [1]: > 80% | viability at 10 µg/mL [2]: 10%

Structure (SMILES): CC1(C)C(/C=C/C2=C(Cl)C(=C/C=C3/N(CCCCS(=O)(=O)O)c4cc(I)cc(I)c4C3(C)C)/CCC2)=[N+](CCCCS(=O)(=O)O)c2cc(I)cc(I)c21
inhibition of growth at 25 µM [7]: 70% | inhibition at 24 h, up to 25 µM [8]: 0% | inhibition at 24 h, up to 25 µM [9]: 0% | inhibition of growth at 12.5 µM [10]: > 20% | inhibition of growth at 12.5 µM [11]: > 40% | inhibition of growth at 6.25 µM [12]: 20% | inhibition of growth at 25 µM [13]: 40% | inhibition of growth at 6.25 µM [14]: > 10%

Structure (SMILES): COc1ccc(C2=C3C(C)=C(I)C(C)=[N+]3[B-](F)(F)n3c(C)c(I)c(C)c32)cc1
EC50 [4]: 0.65 nM

Structure (SMILES): CC1(C)C(/C=C/C2=C(Cl)C(=C/C=C3/N(CCCCS(=O)(=O)O)c4ccc(I)cc4C3(C)C)/CCC2)=[N+](CCCCS(=O)(=O)O)c2ccc(I)cc21
inhibition of growth at 25 µM [7]: > 80% | inhibition at 24 h, up to 25 µM [8]: 0% | inhibition at 24 h, up to 25 µM [9]: 0% | inhibition of growth at 12.5 µM [10]: > 20% | inhibition of growth at 12.5 µM [11]: > 60% | inhibition of growth at 6.25 µM [12]: 30% | inhibition of growth at 25 µM [13]: 40% | inhibition of growth at 6.25 µM [14]: > 10%

Structure (SMILES): CCN(CC)c1ccc(/C=C2\CC/C(=C\c3ccc(N(C)CCC(=O)O)cc3)C2=O)cc1
viability at 5 µg/mL [5]: < 10% | viability at 50 ug/ml [6]: < 30%

Structure (SMILES): CCOC(=O)c1cc2c(n1C)-c1[nH]c(=O)ncc1CC2
GI50 at 72 h [17]: > 20000 nM | GI50 [18]: 1080 nM | GI50 at 72 h [19]: > 20000 nM | GI50 at 72 h [20]: > 20000 nM | GI50 at 72 h [21]: 6000 nM | GI50 [22]: 2920 nM | GI50 [23]: 2450 nM | GI50 [24]: 2300 nM

Structure (SMILES): CCOC(=O)c1cc2c(n1C)-c1nc(N)ncc1CC2
GI50 at 72 h [17]: > 20000 nM | GI50 [18]: 8420 nM | GI50 at 72 h [19]: > 20000 nM | GI50 at 72 h [20]: > 20000 nM | GI50 at 72 h [21]: > 20000 nM | GI50 [22]: > 20000 nM | GI50 [23]: > 20000 nM | GI50 [24]: > 20000 nM

Structure (SMILES): CCOC(=O)c1cc2c(n1Cc1ccccc1)-c1nc(N)ncc1CC2
GI50 at 72 h [17]: 14200 nM | GI50 [18]: 210 nM | GI50 at 72 h [19]: > 20000 nM | GI50 at 72 h [20]: > 20000 nM | GI50 at 72 h [21]: 14000 nM | GI50 [22]: 480 nM | GI50 [23]: 390 nM | GI50 [24]: 440 nM

Structure (SMILES): CCOC(=O)c1cc2c(n1Cc1ccc(C)cc1)-c1nc(N)ncc1CC2
GI50 at 72 h [17]: > 20000 nM | GI50 [18]: 230 nM | GI50 at 72 h [19]: > 20000 nM | GI50 at 72 h [20]: > 20000 nM | GI50 at 72 h [21]: > 20000 nM | GI50 [22]: 410 nM | GI50 [23]: 260 nM | GI50 [24]: 340 nM
